Measurements from patent US9359381B2, “Tricyclic compounds for inhibiting the CFTR channel” (Novartis AG, priority 2012, dated 2016).

Target: T1, WT-CFTR channels (Homo sapiens, UniProt P13569)
T1 construct: expressed in transfected cells
Test: IonWorks Quattro CFTR inhibitor assay (whole-cell planar patch clamp)
Assay type: cell-based
Details: inward current (−100 mV); CHO cells stably expressing WT-CFTR; CFTR activated by 10 μM forskolin; 10 min compound incubation

T1 sequence (P13569 whole entry): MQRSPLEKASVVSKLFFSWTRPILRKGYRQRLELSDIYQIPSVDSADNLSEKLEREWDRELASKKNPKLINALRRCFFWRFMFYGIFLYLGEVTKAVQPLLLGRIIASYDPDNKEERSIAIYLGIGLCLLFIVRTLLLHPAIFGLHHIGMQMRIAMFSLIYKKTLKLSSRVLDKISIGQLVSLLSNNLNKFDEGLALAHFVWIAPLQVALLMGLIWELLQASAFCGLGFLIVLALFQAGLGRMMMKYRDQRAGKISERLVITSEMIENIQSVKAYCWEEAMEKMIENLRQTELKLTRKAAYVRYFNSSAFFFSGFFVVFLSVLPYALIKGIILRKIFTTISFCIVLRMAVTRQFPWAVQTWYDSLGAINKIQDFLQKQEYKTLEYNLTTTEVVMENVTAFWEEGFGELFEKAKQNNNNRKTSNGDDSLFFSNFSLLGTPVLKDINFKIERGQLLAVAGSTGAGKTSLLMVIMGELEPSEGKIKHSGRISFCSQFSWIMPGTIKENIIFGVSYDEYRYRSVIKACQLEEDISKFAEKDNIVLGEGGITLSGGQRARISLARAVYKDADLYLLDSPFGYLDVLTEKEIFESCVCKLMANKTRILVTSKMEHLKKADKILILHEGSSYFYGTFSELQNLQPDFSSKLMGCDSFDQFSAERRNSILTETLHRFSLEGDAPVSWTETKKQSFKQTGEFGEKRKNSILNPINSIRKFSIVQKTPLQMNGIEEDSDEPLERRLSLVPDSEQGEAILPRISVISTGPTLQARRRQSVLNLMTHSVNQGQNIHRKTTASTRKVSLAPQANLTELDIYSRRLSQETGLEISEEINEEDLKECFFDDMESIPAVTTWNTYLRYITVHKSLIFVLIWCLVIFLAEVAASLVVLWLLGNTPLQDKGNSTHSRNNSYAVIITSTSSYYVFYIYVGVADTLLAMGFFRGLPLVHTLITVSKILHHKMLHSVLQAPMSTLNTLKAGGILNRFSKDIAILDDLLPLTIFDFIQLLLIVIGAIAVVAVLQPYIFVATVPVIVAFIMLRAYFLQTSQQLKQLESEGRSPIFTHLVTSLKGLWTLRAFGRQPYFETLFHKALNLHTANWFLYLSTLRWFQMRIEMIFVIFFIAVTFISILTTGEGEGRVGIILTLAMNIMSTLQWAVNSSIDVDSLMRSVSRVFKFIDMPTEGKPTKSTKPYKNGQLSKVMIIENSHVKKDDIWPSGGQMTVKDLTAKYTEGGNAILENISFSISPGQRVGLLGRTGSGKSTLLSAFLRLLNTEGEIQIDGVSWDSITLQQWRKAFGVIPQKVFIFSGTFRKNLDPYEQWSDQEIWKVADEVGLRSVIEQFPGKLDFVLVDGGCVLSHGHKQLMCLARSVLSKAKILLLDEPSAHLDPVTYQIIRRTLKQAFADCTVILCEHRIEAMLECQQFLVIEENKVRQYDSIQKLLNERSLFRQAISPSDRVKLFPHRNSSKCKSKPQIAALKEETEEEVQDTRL

- IC50: 0.05 µM
Compound: Cc1csc(-c2c3c(=O)n(C)c(=O)n(C)c3c3n2CCC[C@H]3c2nc(Cl)cs2)n1 (single isomer, unassigned) [Example 13.2a, 10-(4-chlorothiazol-2-yl)-1,3-dimethyl-5-(4-methylthiazol-2-yl)-7,8,9,10-tetrahydropyrimido[4,5-a]indolizine-2,4(1H,3H)-dione]
